Molecular target: T1, recombinant human MAO-B (Homo sapiens, UniProt P27338)
T1 sequence (P27338 1-520): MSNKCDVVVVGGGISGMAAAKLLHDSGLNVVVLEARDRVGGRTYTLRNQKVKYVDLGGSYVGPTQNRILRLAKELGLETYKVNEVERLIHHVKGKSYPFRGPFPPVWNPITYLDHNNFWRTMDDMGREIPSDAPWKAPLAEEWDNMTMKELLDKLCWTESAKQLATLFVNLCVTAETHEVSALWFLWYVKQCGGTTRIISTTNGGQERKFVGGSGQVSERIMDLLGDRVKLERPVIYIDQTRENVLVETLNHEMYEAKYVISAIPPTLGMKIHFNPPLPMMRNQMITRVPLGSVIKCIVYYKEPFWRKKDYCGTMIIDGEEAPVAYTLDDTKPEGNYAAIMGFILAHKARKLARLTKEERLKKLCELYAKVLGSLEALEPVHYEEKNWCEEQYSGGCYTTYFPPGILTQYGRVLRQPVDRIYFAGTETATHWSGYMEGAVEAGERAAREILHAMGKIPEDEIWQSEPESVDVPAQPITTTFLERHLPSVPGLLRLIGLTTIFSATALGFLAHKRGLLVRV
Experiment: Reversibility of MAO-B inhibition by dialysis
Type: biochemical
Settings: dialysis experiment

**Q.** How did the “Reversibility of MAO-B inhibition” value turn out when C[C@H](NCc1ccc(OCc2cccc(F)c2)cc1)C(N)=O [Safinamide] was run?
**A.** The value was “reversible”.
